Experimental data as given in publication PMC6669322, “Small Molecule Binding to Alzheimer Risk Factor CD33 Promotes Aβ Phagocytosis” (iScience, 2019).

Legend:
[1] = system: differentiated THP-1 cells; experiment: THP-1 phagocytosis assay (pHrodo E. coli BioParticles), wild-type cells; type: cell-based, human; conditions: co-treatment, all treatment groups, in words
Excerpt: (§1) Having shown that P22 binds specifically to the sialic acid-binding site of this domain we now have a chemical tool to answer the question of whether the sialic acid-binding site is the appropriate target for small molecule ligands that might promote Aβ uptake. Siglecs preferentially recognize multivalent presentation of their ligands ([Rillahan et al., 2014], [Büll et al., 2016]), and for this reason we conjugated the biotinylated form of P22 to microparticles labeled with both FITC and streptavidin (P22 microparticles) (see Transparent Methods). More than 60% CD33-transfected BV2 cells were positive for P22 microparticles compared with only 30% cells that were only incubated with control particles (unconjugated to P22) (Figure 4A). […]
(§2) Figure 4 Effect of P22 on Phagocytosis The cells were treated with P22 conjugated to microparticles labeled with both streptavidin and fluorescein isothiocyanate (FITC), or with microparticles without P22 conjugated as control. […] (C) Quantification of phagocytic differentiated human THP-1 cells after incubation with P22 monomer, P22 conjugated microparticles, or microparticles without P22 conjugation. […]
THP-1 cells (control and CD33KO) were differentiated in growth media (RPMI 1640, 10% FCS) supplemented with 100 ng/mL PMA for 3 days. […] Differentiated cells were then lifted, counted and 75,000 cells/well were plated in a 96 well plate. […]

[2] = system: human CD33-transfected BV2 cells; experiment: Aβ42 phagocytosis assay (Aβ42 pHrodo uptake); type: cell-based, murine; conditions: cells pre-treated with millimolar concentration of the ligand, in words
Excerpt: as §1, with “4A). Although some P22 microparticles also bind to non-transfected cells, the difference remains significant for the cells transfected with CD33. This led us to believe that the compound bound preferentially to CD33 (Figure 4A).” for “4A).”
as §2

CD33 = system: CD33; set-up: method as in Blixt et al., 2003; conditions: order of magnitude in words; ref Blixt et al., 2003; cited from earlier work

Row | Compound | effect of co-treatment on phagocytosis [1] | effect on phagocytosis [2] | affinity for CD33 (CD33)
1 | C=C1[C@@H](C)[C@H]2[C@H](Cc3ccccc3)NC(=O)[C@]23[C@H](OC(C)=O)/C=C/[C@@](C)(O)C(=O)[C@@H](C)C/C=C/[C@H]3[C@@H]1O [cytochalasin D] | blocked phagocytosis | – | –
2 | CC(=O)N[C@H]1[C@H]([C@H](O)[C@H](O)CO)O[C@@](O[C@H]2[C@@H](O)[C@@H](CO)O[C@@H](O[C@H]3[C@H](O)[C@@H](O)C(O)O[C@@H]3CO)[C@@H]2O)(C(=O)O)C[C@@H]1O (stereo partly drawn) [3′-sialyllactose] | – | no difference | millimolar
